Patent US20230374015A1, “INHIBITORS OF FIBROBLAST GROWTH FACTOR RECEPTOR KINASES” (Kinnate Biopharma Inc., priority 2020, published 2023)
Structures can show the parent of a compound that is named as a salt.

Each compound was assayed against FGFR2 (Homo sapiens, UniProt P21802) (assay: FGFR2 Kinase Protocol - Condition 2 (Reaction Biology HotSpot radiometric kinase assay, no preincubation)). Details: poly[Glu:Tyr] (4:1) 0.2 mg/ml, ATP 100 microM, 2 hr room temperature.
Format: biochemical
Description: Example 2: FGFR2 Kinase Protocol—Condition 2
The Reaction Biology HotSpot assay platform (http://www.reactionbiology.com) was used to measure kinase/inhibitor interactions as described previously (Anastassiadis et al., 2011). In brief, for each reaction, kinase and substrate were mixed in a buffer containing 20 mM HEPES (pH 7.5), 10 mM MgCl2, 1 mM EGTA, 0.02% Brij35, 0.02 mg/mL BSA, 0.1 mM Na3VO4, 2 mM DTT, and 1% DMSO. All compounds were in powder form and freshly solubilized in DMSO for assays. Compounds were then added to each reaction mixture via acoustic dispense using an ECHO 550 nanoliter dispenser. For Human FGFR2 wildtype testing, a peptide substrate, poly[Glu:Tyr] (4:1) was used to promote the reaction at a concentration of 0.2 mg/ml. For Human FGFR2 (V564F) testing, a peptide substrate, poly[Glu:Tyr] (4:1) was used to promote the reaction at a concentration of 0.2 mg/ml. ATP concentration for all assays was maintained at 100 micromolar. Compounds were tested in 10-dose IC50 mode with a 3-fold serial dilution. Compounds were added to plates and ATP was added directly to the wells. ATP (Sigma-Aldrich, St. Louis, MO 63178) and [g33P] ATP (specific activity 10 microCi/microliter) purchased at PerkinElmer (Boston, MA, 02118 Cat #BLU 003H250UC) were added at a final total concentration of 100 microM to each well with no preincubation. Reactions were carried out at room temperature for 2 hr and spotted onto P81 ion exchange cellulose chromatography paper (Reaction Biology). Filter paper was washed in 0.75% phosphoric acid to remove unincorporated ATP. The percent remaining kinase activity relative to a vehicle-containing (DMSO) kinase reaction was calculated for each kinase/inhibitor pair. IC50 values were calculated using Dotmatics Knowledge Solutions Studies curve fitting (Dotmatics, Bishops Stortford, UK, CM23).

Chain of FGFR2 (P21802 22-821): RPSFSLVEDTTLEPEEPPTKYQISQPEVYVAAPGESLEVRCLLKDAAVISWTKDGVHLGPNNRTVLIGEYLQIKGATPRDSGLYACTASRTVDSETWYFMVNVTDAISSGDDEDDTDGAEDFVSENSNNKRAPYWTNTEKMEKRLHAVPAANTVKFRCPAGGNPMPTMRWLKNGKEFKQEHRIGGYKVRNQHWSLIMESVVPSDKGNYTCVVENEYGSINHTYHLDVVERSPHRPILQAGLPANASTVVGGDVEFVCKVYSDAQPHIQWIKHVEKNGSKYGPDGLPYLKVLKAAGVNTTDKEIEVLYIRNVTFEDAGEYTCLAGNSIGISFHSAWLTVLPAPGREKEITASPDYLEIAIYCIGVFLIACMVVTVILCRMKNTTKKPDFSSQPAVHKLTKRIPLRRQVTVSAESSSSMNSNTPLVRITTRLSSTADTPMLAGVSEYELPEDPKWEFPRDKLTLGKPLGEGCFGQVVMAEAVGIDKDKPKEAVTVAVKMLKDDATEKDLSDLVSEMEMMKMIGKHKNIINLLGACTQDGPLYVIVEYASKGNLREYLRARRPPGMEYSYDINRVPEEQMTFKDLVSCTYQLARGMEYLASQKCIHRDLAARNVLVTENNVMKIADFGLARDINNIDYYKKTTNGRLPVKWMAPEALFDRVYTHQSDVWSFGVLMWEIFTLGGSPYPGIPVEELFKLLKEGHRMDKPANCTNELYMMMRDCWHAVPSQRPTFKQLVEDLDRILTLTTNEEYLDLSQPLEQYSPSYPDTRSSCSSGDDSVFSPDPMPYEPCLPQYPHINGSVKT

IC50, ≤ 100 nM:
C=CC(=O)N1C[C@@H](n2nc(C#Cc3c(F)cc4c(ncn4C)c3F)c3c(N)ncnc32)C[C@@H]1COC [Example 55, 1-[(2R,4S)-4-[4-Amino-3-[2-(4,6-difluoro-1-methyl-1,3-benzodiazol-5-yl)ethynyl]pyrazolo[3,4-d]pyrimidin-1-yl]-2-(methoxymethyl)pyrrolidin-1-yl] prop-2-en-1-one]
C=CC(=O)N1C[C@@H](n2nc(C#Cc3ccc4c(c3)ncn4C)c3c(N)ncnc32)C[C@@H]1COC(F)(F)F [Example 56, 1-((2R,4S)-4-(4-Amino-3-((1-methyl-1H-benzo[d]imidazol-5-yl)ethynyl)-1H-pyrazolo[3,4-d]pyrimidin-1-yl)-2-((trifluoromethoxy)methyl)pyrrolidin-1-yl)prop-2-en-1-one]
C=CC(=O)N1C[C@@H](n2nc(C#Cc3cc4ncn(C)c4cc3F)c3c(N)ncnc32)C[C@@H]1COC(F)(F)F [Example 57, 1-[(2R,4S)-4-[4-Amino-3-[2-(6-fluoro-1-methyl-1,3-benzodiazol-5-yl)ethynyl]pyrazolo[3,4-d]pyrimidin-1-yl]-2-[(trifluoromethoxy)methyl]pyrrolidin-1-yl]prop-2-en-1-one]
C=CC(=O)N1C[C@@H](n2nc(C#Cc3ccc4c(c3)ncn4C)c3c(N)nccc32)C[C@@H]1COC(F)(F)F [Example 58, 1-((2R,4S)-4-(4-Amino-3-((1-methyl-1H-benzo[d]imidazol-5-yl)ethynyl)-1H-pyrazolo[4,3-c]pyridin-1-yl)-2-((trifluoromethoxy)methyl)pyrrolidin-1-yl)prop-2-en-1-one formate]
C=CC(=O)N1C[C@@H](n2nc(C#Cc3cc4ncn(C)c4cc3F)c3c(N)nccc32)C[C@@H]1COC(F)(F)F [Example 59, 1-((2R,4S)-4-(4-amino-3-((6-fluoro-1-methyl-1H-benzo[d]imidazol-5-yl)ethynyl)-1H-pyrazolo[4,3-c]pyridin-1-yl)-2-((trifluoromethoxy)methyl)pyrrolidin-1-yl)prop-2-en-1-one formate]
C=CC(=O)N1C[C@@H](n2nc(C#Cc3c(F)cc4c(ncn4C)c3F)c3c(N)nccc32)C[C@@H]1COC(F)(F)F [Example 60, 1-[(2R,4S)-4-[4-Amino-3-[2-(4,6-difluoro-1-methyl-1,3-benzodiazol-5-yl)ethynyl]pyrazolo[4,3-c]pyridin-1-yl]-2-[(trifluoromethoxy)methyl]pyrrolidin-1-yl]prop-2-en-1-one]
C=CC(=O)N1C[C@@H](n2cc(C#Cc3c(F)cc4c(ncn4C)c3F)c3c(N)ncnc32)C[C@@H]1COC [Example 61, 1-[(2R,4S)-4-[4-Amino-5-[2-(4,6-difluoro-1-methyl-1,3-benzodiazol-5-yl)ethynyl]pyrrolo[2,3-d]pyrimidin-7-yl]-2-(methoxymethyl)pyrrolidin-1-yl]prop-2-en-1-one]
C=CC(=O)N1C[C@@H](n2nc(C#Cc3cc4ncn(C)c4cc3F)c3c(N)ncnc32)C[C@@H]1COC [Example 62, 1-[(2R,4S)-4-[4-Amino-3-[2-(6-fluoro-1-methyl-1,3-benzodiazol-5-yl)ethynyl]pyrazolo[3,4-d]pyrimidin-1-yl]-2-(methoxymethyl)pyrrolidin-1-yl]prop-2-en-1-one]
C=CC(=O)N1C[C@@H](n2cc(C#Cc3cc4ncn(C)c4cc3F)c3c(N)ncnc32)C[C@@H]1COC [Example 63, 1-[(2R,4S)-4-[4-Amino-5-[2-(6-fluoro-1-methyl-1,3-benzodiazol-5-yl)ethynyl]pyrrolo[2,3-d]pyrimidin-7-yl]-2-(methoxymethyl)pyrrolidin-1-yl]prop-2-en-1-one]
C=CC(=O)N1C[C@@H](n2nc(C#Cc3c(F)cc4c(ncn4C(F)F)c3F)c3c(N)ncnc32)C[C@@H]1COC [Example 64, 1-[(2R,4S)-4-(4-Amino-3-[2-[1-(difluoromethyl)-4,6-difluoro-1,3-benzodiazol-5-yl]ethynyl]pyrazolo[3,4-d]pyrimidin-1-yl)-2-(methoxymethyl)pyrrolidin-1-yl]prop-2-en-1-one]
C=CC(=O)N1C[C@@H](n2nc(C#Cc3c(F)cc4c(ncn4C(F)F)c3F)c3c(N)nccc32)C[C@@H]1COC [Example 65, 1-[(2R,4S)-4-(4-Amino-3-[2-[1-(difluoromethyl)-4,6-difluoro-1,3-benzodiazol-5-yl]ethynyl]pyrazolo[4,3-c]pyridin-1-yl)-2-(methoxymethyl)pyrrolidin-1-yl]prop-2-en-1-one]
C=CC(=O)N1C[C@@H](n2cc(C#Cc3ccc4c(c3)ncn4C)c3c(N)ncnc32)C[C@@H]1COC(F)(F)F [Example 66, 1-[(2R,4S)-4-[4-Amino-5-[2-(1-methyl-1,3-benzodiazol-5-yl)ethynyl]pyrrolo[2,3-d]pyrimidin-7-yl]-2-[(trifluoromethoxy)methyl]pyrrolidin-1-yl]prop-2-en-1-one]
C=CC(=O)N1C[C@@H](n2cc(C#Cc3cc4ncn(C)c4cc3F)c3c(N)ncnc32)C[C@@H]1COC(F)(F)F [Example 67, 1-((2R,4S)-4-(4-Amino-5-((6-fluoro-1-methyl-1H-benzo[d]imidazol-5-yl)ethynyl)-7H-pyrrolo[2,3-d]pyrimidin-7-yl)-2-((trifluoromethoxy)methyl)pyrrolidin-1-yl)prop-2-en-1-one]
C=CC(=O)N1C[C@@H](n2cc(C#Cc3c(F)cc4c(ncn4C)c3F)c3c(N)ncnc32)C[C@@H]1COC(F)(F)F [Example 68, 1-((2R,4S)-4-(4-Amino-5-((4,6-difluoro-1-methyl-1H-benzo[d]imidazol-5-yl)ethynyl)-7H-pyrrolo[2,3-d]pyrimidin-7-yl)-2-((trifluoromethoxy)methyl)pyrrolidin-1-yl)prop-2-en-1-one]
C=CC(=O)N1C[C@@H](n2cc(C#Cc3c(F)cc4c(ncn4C(F)F)c3F)c3c(N)ncnc32)C[C@@H]1COC [Example 69, 1-[(2R,4S)-4-(4-Amino-5-[2-[1-(difluoromethyl)-4,6-difluoro-1,3-benzodiazol-5-yl]ethynyl]pyrrolo[2,3-d]pyrimidin-7-yl)-2-(methoxymethyl)pyrrolidin-1-yl]prop-2-en-1-one]
C=CC(=O)N1C[C@@H](n2nc(C#Cc3c(F)cc4c(ncn4CC)c3F)c3c(N)ncnc32)C[C@@H]1COC(F)(F)F [Example 70, 1-((2R,4S)-4-(4-Amino-3-((1-ethyl-4,6-difluoro-1H-benzo[d]imidazol-5-yl)ethynyl)-1H-pyrazolo[3,4-d]pyrimidin-1-yl)-2-((trifluoromethoxy)methyl)pyrrolidin-1-yl)prop-2-en-1-one]
C=CC(=O)N1C[C@@H](n2nc(C#Cc3cc4ncn(CC)c4cc3F)c3c(N)ncnc32)C[C@@H]1COC(F)(F)F [Example 71, 1-[(2R,4S)-4-[4-amino-3-[2-(1-ethyl-6-fluoro-1,3-benzodiazol-5-yl)ethynyl]pyrazolo[3,4-d]pyrimidin-1-yl]-2-[(trifluoromethoxy)methyl]pyrrolidin-1-yl]prop-2-en-1-one]
C=CC(=O)N1C[C@@H](n2nc(C#Cc3c(F)cc4c(ncn4C4CC4)c3F)c3c(N)ncnc32)C[C@@H]1COC [Example 72, 1-[(2R,4S)-4-[4-Amino-3-[2-(1-cyclopropyl-4,6-difluoro-1,3-benzodiazol-5-yl)ethynyl]pyrazolo[3,4-d]pyrimidin-1-yl]-2-(methoxymethyl)pyrrolidin-1-yl]prop-2-en-1-one]
C=CC(=O)N1C[C@@H](n2nc(C#Cc3c(F)cc4c(ncn4C4CC4)c3F)c3c(N)nccc32)C[C@@H]1COC [Example 73, 1-[(2R,4S)-4-[4-Amino-3-[2-(1-cyclopropyl-4,6-difluoro-1,3-benzodiazol-5-yl)ethynyl]pyrazolo[4,3-c]pyridin-1-yl]-2-(methoxymethyl)pyrrolidin-1-yl]prop-2-en-1-one; formic acid]
C=CC(=O)N1C[C@@H](n2nc(C#Cc3cc4ncn(C)c4cc3F)c3c(N)nccc32)C[C@@H]1COC [Example 74, 1-[(2R,4S)-4-[4-Amino-3-[2-(6-fluoro-1-methyl-1,3-benzodiazol-5-yl)ethynyl]pyrazolo[4,3-c]pyridin-1-yl]-2-(methoxymethyl)pyrrolidin-1-yl]prop-2-en-1-one]
C=CC(=O)N1C[C@@H](n2cc(C#Cc3c(F)cc4c(ncn4C4CC4)c3F)c3c(N)ncnc32)C[C@@H]1COC [Example 75, 1-[(2R,4S)-4-[4-Amino-5-[2-(1-cyclopropyl-4,6-difluoro-1,3-benzodiazol-5-yl)ethynyl]pyrrolo[2,3-d]pyrimidin-7-yl]-2-(methoxymethyl)pyrrolidin-1-yl]prop-2-en-1-one]
